The record followed here is ChEMBL document CHEMBL1137013, “Discovery of (2R)-2-(3-{3-[(4-Methoxyphenyl)carbonyl]-2-methyl-6-(trifluoromethoxy)-1H-indol-1-yl}phenoxy)butanoic acid (MK-0533): a novel selective peroxisome proliferator-activated receptor gamma modulator for the treatment of type 2 diabetes mellitus with a reduced potential to increase plasma …” (J Med Chem, 2009).

The subject of one data set is Liver microsomes. Description: Protein binding in rat liver microsomes assessed per mg of protein. In kind it is ADME, Microsome. In general terms: Liver microsomes are vesicles of endoplasmic reticulum, rich in cytochrome P450 enzymes.
For another data set, the system named is Mus musculus. Description: Antihyperglycemic activity in db/db mouse assessed as plasma adiponectin level at 30 mg/kg, po administered once daily for 11 days by RIA. The class given is functional.

In the case of `CC[C@@H](Oc1cccc(-n2c(C)c(C(=O)c3ccc(OC)cc3)c3ccc(OC(F)(F)F)cc32)c1)C(=O)O` [MK-0533], the PB in the data set on Liver microsomes was less than 10 pmol. Also, the Activity in the data set with Mus musculus was found to be 48.1 µg/mL.
